Structures are written as SMILES. Some results are limits rather than exact numbers.

For orientation: Ki means a measure of affinity in units of concentration, obtained from inhibition or displacement. The low end stands for tighter binding, the high end for weaker binding. As a reminder, the inhibition is the share of the control response that was lost under treatment. Low readings indicate a response near the control, high ones a response far below the control. By IC50 is commonly meant the concentration needed to halve the response being measured. A higher IC50 goes with weaker potency in that assay.

For one assay, the target named is T1, Adenosine receptor A2a (Homo sapiens, UniProt P29274). Briefly: Displacement of [3H]NECA from human adenosine A2A receptor expressed in CHO cells. It is filed as cell-based.
T1 sequence (P29274 whole entry): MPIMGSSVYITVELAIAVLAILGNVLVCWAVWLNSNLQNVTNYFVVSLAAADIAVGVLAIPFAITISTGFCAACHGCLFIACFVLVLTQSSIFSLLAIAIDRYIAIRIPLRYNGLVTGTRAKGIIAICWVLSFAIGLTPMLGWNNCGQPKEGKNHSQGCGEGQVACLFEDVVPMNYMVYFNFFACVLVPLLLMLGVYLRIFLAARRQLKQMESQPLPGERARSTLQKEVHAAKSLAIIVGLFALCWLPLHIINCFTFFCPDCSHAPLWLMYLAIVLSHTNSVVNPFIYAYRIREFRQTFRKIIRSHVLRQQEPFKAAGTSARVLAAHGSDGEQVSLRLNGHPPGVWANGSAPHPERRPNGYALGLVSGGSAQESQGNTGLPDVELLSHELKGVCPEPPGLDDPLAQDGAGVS
Settings: not given
For `Nc1cccc2c1nc(NC(=O)C(c1ccccc1)c1ccccc1)c1nn(-c3ccccc3)c(=O)n12`, the Ki turned out to be 627 nM. This lies in the sub-micromolar range.

For the compound `O=C(Nc1nc2ccccc2n2c(=O)n(-c3ccccc3)nc12)c1ccccc1`, the affinity corresponds to a Ki of 88.2 nM.

Turning to `COc1ccc(-n2nc3c(NC(C)=O)nc4c(N)cccc4n3c2=O)cc1`, the inhibition constant (Ki) amounted to 1100 nM.

`Nc1cccc2c1nc(NC(=O)c1ccccc1)c1nn(-c3ccccc3)c(=O)n12` yielded an inhibitory constant (Ki) of 4850 nM.

In turn, `COc1ccc(-n2nc3c(NC(=O)c4ccccc4)nc4ccccc4n3c2=O)cc1` yielded a Ki of 3580 nM. This Ki and that of the compound before are within 1.5-fold of each other.

The next assay concerns the target T2, Adenosine receptor A1 (Homo sapiens, UniProt P30542).
T2 sequence (P30542 whole entry): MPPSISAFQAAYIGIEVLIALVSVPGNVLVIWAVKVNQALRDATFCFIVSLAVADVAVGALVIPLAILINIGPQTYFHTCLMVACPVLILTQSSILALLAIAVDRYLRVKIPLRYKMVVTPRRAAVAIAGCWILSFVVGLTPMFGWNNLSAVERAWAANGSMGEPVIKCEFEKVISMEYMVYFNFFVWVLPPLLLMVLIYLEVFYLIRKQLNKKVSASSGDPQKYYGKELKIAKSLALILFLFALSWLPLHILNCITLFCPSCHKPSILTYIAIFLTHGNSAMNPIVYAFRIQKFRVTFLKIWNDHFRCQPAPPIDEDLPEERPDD
Briefly: Displacement of [3H]DPCPX from human adenosine A1 receptor expressed in CHO cells. Type of assay: cell-based.
Settings: not given
(Displacement assays read how much labelled ligand stays bound in the presence of the test substance.)
Consider `O=C(Nc1nc2ccccc2n2c(=O)n(-c3ccccc3)nc12)c1ccccc1`, for which the Ki worked out at 87.8 nM.

Compound `COc1ccc(-n2nc3c(NC(C)=O)nc4c(N)cccc4n3c2=O)cc1` had a Ki of 2700 nM.

`O=C(Nc1nc2ccccc2n2c(=O)n(-c3ccccc3)nc12)C(c1ccccc1)c1ccccc1` had a Ki of 18.8 nM.

For `Nc1cccc2c1nc(NC(=O)c1ccccc1)c1nn(-c3ccccc3)c(=O)n12`, the affinity corresponds to a Ki of 98 nM.

Take `CC(=O)Nc1nc2ccccc2n2c(=O)n(-c3ccccc3)nc12`: the Ki is 2000 nM.

In a further assay the target is T3, Adenosine receptor A1 (Homo sapiens) (UniProt P30542).
T3 sequence (whole entry): T2 sequence (P30542 whole entry)
Briefly: Inhibition of [3H]DPCPX binding to human adenosine A1 receptor at 10 uM.
Settings: not given
`CC(=O)Nc1nc2c(N)cccc2n2c(=O)n(-c3ccccc3)nc12` showed an inhibition of 32%.

`COc1ccc(-n2nc3c(NC(C)=O)nc4ccccc4n3c2=O)cc1` showed an inhibition of 34%.

Compound `Nc1cccc2c1nc(NC(=O)C(c1ccccc1)c1ccccc1)c1nn(-c3ccccc3)c(=O)n12` returned an inhibition of 2.5%.

For `COc1ccc(-n2nc3c(NC(=O)C(c4ccccc4)c4ccccc4)nc4ccccc4n3c2=O)cc1`, the inhibition came out at 25%.

Compound `O=C(c1ccccc1)N(C(=O)c1ccccc1)c1nc2ccccc2n2c(=O)n(-c3ccccc3)nc12` yielded an inhibition of 1%.

Consider `COc1ccc(-n2nc3c(NC(=O)C(c4ccccc4)c4ccccc4)nc4c(N)cccc4n3c2=O)cc1`, for which the inhibition is 0%.

In turn, `COc1ccc(-n2nc3c(NC(=O)c4ccccc4)nc4ccccc4n3c2=O)cc1` gave an inhibition of 37%.

The target of another assay is T4, Adenosine receptor A1 (Bos taurus, UniProt P28190).
T4 sequence (P28190 whole entry): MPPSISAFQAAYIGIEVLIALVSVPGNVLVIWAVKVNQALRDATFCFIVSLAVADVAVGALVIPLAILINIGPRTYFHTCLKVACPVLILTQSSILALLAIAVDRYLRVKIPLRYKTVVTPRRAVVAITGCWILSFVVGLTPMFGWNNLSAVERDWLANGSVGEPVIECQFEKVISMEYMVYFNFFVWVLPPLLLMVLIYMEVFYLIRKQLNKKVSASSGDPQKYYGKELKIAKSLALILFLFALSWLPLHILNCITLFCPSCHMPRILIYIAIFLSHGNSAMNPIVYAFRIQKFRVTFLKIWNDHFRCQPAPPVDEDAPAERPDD
Briefly: Displacement of [3H]DPCPX from adenosine A1 receptor in bovine brain membranes. It is filed as cell membranes.
Settings: not given
Consider `CC(=O)Nc1nc2c(N)cccc2n2c(=O)n(-c3ccccc3)nc12`, for which the Ki is 1 nM.

Regarding `COc1ccc(-n2nc3c(NC(C)=O)nc4ccccc4n3c2=O)cc1`, the Ki was found to be 245 nM.

On to `Nc1cccc2c1nc(NC(=O)C(c1ccccc1)c1ccccc1)c1nn(-c3ccccc3)c(=O)n12`, for which the inhibitory constant (Ki) was 1.6 nM.

In the case of `COc1ccc(-n2nc3c(NC(=O)C(c4ccccc4)c4ccccc4)nc4ccccc4n3c2=O)cc1`, the inhibition constant (Ki) is 7.2 nM.

For `O=C(c1ccccc1)N(C(=O)c1ccccc1)c1nc2ccccc2n2c(=O)n(-c3ccccc3)nc12`, the affinity corresponds to a Ki of 30 nM.

For `COc1ccc(-n2nc3c(NC(C)=O)nc4c(N)cccc4n3c2=O)cc1`, the affinity, expressed as Ki, was 363 nM. Against the preceding compound, the Ki is about 12-fold higher.

Regarding `O=C(Nc1nc2ccccc2n2c(=O)n(-c3ccccc3)nc12)C(c1ccccc1)c1ccccc1`, the inhibition constant Ki was 10.2 nM.

`COc1ccc(-n2nc3c(NC(=O)C(c4ccccc4)c4ccccc4)nc4c(N)cccc4n3c2=O)cc1`: the Ki was determined as 77.5 nM.

Turning to `Nc1cccc2c1nc(NC(=O)c1ccccc1)c1nn(-c3ccccc3)c(=O)n12`, the Ki came to 42 nM.

In turn, `COc1ccc(-n2nc3c(NC(=O)c4ccccc4)nc4ccccc4n3c2=O)cc1` came in with a Ki of 1010 nM.

The next assay deals with T1, Adenosine receptor A2a. The assay can be described thus: Inhibition of [3H]NECA binding to human adenosine A2A receptor at 10 uM.
Settings: not given
The compound `COc1ccc(-n2nc3c(NC(C)=O)nc4ccccc4n3c2=O)cc1` had an inhibition of 6%.

In turn, `O=C(c1ccccc1)N(C(=O)c1ccccc1)c1nc2ccccc2n2c(=O)n(-c3ccccc3)nc12` yielded an inhibition of 43%.

Take `O=C(Nc1nc2ccccc2n2c(=O)n(-c3ccccc3)nc12)C(c1ccccc1)c1ccccc1`: the inhibition stood at 58%.

Compound `COc1ccc(-n2nc3c(NC(=O)C(c4ccccc4)c4ccccc4)nc4c(N)cccc4n3c2=O)cc1` gave an inhibition of 31%.

As to `CC(=O)Nc1nc2ccccc2n2c(=O)n(-c3ccccc3)nc12`, the inhibition came out at 22%.

In the next assay the target is T5, Adenosine receptor A3 (Homo sapiens, UniProt P0DMS8).
T5 sequence (P0DMS8 whole entry): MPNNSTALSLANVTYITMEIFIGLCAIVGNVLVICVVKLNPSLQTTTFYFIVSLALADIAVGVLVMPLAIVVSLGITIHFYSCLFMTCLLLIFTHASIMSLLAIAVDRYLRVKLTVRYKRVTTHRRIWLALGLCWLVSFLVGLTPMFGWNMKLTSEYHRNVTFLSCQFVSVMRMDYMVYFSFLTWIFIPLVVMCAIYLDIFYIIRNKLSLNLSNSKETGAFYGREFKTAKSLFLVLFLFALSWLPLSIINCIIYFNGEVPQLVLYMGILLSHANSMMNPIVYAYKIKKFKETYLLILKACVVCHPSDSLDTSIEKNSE
The assay can be described thus: Displacement of [125I]AB-MECA from human adenosine A3 receptor expressed in CHO cells. Type of assay: cell-based.
Settings: not given
The compound `CC(=O)Nc1nc2c(N)cccc2n2c(=O)n(-c3ccccc3)nc12` returned a Ki of 48 nM. This lies in the double-digit nanomolar range.

For the compound `COc1ccc(-n2nc3c(NC(C)=O)nc4ccccc4n3c2=O)cc1`, the Ki was determined as 35.7 nM.

`Nc1cccc2c1nc(NC(=O)C(c1ccccc1)c1ccccc1)c1nn(-c3ccccc3)c(=O)n12` displayed an inhibition constant (Ki) of 8.65 nM.

Turning to `COc1ccc(-n2nc3c(NC(=O)C(c4ccccc4)c4ccccc4)nc4ccccc4n3c2=O)cc1`, the Ki was determined as 44 nM.

Turning to `O=C(c1ccccc1)N(C(=O)c1ccccc1)c1nc2ccccc2n2c(=O)n(-c3ccccc3)nc12`, affinity was put at a Ki of 5.2 nM.

Regarding `COc1ccc(-n2nc3c(NC(C)=O)nc4c(N)cccc4n3c2=O)cc1`, the Ki worked out at 5.5 nM. The Ki values of the last two compounds are within 1.5-fold of each other.

On to `O=C(Nc1nc2ccccc2n2c(=O)n(-c3ccccc3)nc12)C(c1ccccc1)c1ccccc1`, for which the affinity corresponds to a Ki of 0.81 nM.

`COc1ccc(-n2nc3c(NC(=O)C(c4ccccc4)c4ccccc4)nc4c(N)cccc4n3c2=O)cc1` had a Ki of 2.58 nM.

For the compound `Nc1cccc2c1nc(NC(=O)c1ccccc1)c1nn(-c3ccccc3)c(=O)n12`, the affinity corresponds to a Ki of 22 nM. Against the preceding compound, the Ki is about 8.5-fold higher.

As for `COc1ccc(-n2nc3c(NC(=O)c4ccccc4)nc4ccccc4n3c2=O)cc1`, the Ki amounted to 2.9 nM.

The next assay concerns the target T6, Adenosine receptor A2b (Homo sapiens, UniProt P29275).
T6 sequence (P29275 whole entry): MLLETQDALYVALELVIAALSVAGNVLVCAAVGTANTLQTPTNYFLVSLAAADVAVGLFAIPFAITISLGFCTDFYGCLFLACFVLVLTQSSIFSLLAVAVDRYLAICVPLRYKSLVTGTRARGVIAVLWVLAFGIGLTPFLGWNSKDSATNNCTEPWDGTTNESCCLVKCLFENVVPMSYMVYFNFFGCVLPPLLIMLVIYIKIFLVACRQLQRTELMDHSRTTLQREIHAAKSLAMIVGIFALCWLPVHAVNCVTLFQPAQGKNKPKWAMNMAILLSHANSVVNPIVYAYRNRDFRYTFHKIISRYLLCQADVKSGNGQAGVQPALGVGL
The assay can be described thus: Inhibition of NECA-stimulated cAMP level in CHO cells transfected with human adenosine A2B receptor. Type of assay: functional, cell-based.
Settings: not given
In general terms: Cyclic AMP is a second messenger, typically raised through Gs and lowered through Gi signalling.
On to `COc1ccc(-n2nc3c(NC(=O)C(c4ccccc4)c4ccccc4)nc4ccccc4n3c2=O)cc1`, for which the IC50 was more than 1000 nM.

Consider `O=C(c1ccccc1)N(C(=O)c1ccccc1)c1nc2ccccc2n2c(=O)n(-c3ccccc3)nc12`, for which the IC50 is more than 1000 nM.

In another assay the target is T7, Adenosine receptor A2b (Homo sapiens) (UniProt P29275).
T7 sequence (whole entry): T6 sequence (P29275 whole entry)
Briefly: Inhibition of NECA-stimulated cAMP level in CHO cells transfected with human adenosine A2B receptor at 1 uM. Type of assay: functional, cell-based.
Settings: not given
For `COc1ccc(-n2nc3c(NC(=O)C(c4ccccc4)c4ccccc4)nc4ccccc4n3c2=O)cc1`, the inhibition amounted to 37%.

For the compound `O=C(c1ccccc1)N(C(=O)c1ccccc1)c1nc2ccccc2n2c(=O)n(-c3ccccc3)nc12`, the inhibition worked out at 15%.

The next assay has as its target T5, Adenosine receptor A3. The assay can be described thus: Antagonist activity against Cl-IB-MECA inhibited cAMP level in CHO cells transfected with human A3 receptor. It is filed as functional, cell-based.
Settings: not given
The compound `COc1ccc(-n2nc3c(NC(=O)C(c4ccccc4)c4ccccc4)nc4ccccc4n3c2=O)cc1` displayed a half-inhibitory concentration (IC50) of 215 nM. That is a sub-micromolar value.

Regarding `O=C(c1ccccc1)N(C(=O)c1ccccc1)c1nc2ccccc2n2c(=O)n(-c3ccccc3)nc12`, the IC50 was 28.3 nM.

Another assay deals with Adenosine receptor A2a (Bos taurus). Briefly: Displacement of [3H]CGS 21680 from adenosine A2A receptor in bovine striatal membranes.
Settings: not given
With `O=C(Nc1nc2ccccc2n2c(=O)n(-c3ccccc3)nc12)C(c1ccccc1)c1ccccc1`, the inhibitory constant (Ki) was found to be 1160 nM.

The next assay has as its system Adenosine receptor A2a (Bos taurus). Briefly: Inhibition of [3H]CGS 21680 binding to adenosine A2A receptor in bovine striatal membranes at 10 uM. The settings on record: Striatum, Membrane.
`Nc1cccc2c1nc(NC(=O)C(c1ccccc1)c1ccccc1)c1nn(-c3ccccc3)c(=O)n12` came in with an inhibition of 12%.

`COc1ccc(-n2nc3c(NC(=O)C(c4ccccc4)c4ccccc4)nc4c(N)cccc4n3c2=O)cc1` showed an inhibition of 0%.

In turn, `Nc1cccc2c1nc(NC(=O)c1ccccc1)c1nn(-c3ccccc3)c(=O)n12` displayed an inhibition of 27.8%.

`COc1ccc(-n2nc3c(NC(=O)c4ccccc4)nc4ccccc4n3c2=O)cc1` yielded an inhibition of 23%.
